Data on five compounds can be found in patent US20090186832A1 (priority 2008, published 2009).

Counter-ions that a name gives are not always drawn. Like-named read-outs stand apart in the source and are kept apart here. Where only a bound is given, the exact number is not on record here.

The conditions of series [1]: dog, in vivo.
The conditions of series [2]: dog, in vivo, po.
The nature of series [3]: in vivo. Conditions: beagle, dog, po, 1 mg, Meptazinol AUCt.
The conditions of series [4]: dog, in vivo. This is another data set of the same source.
A short description of series [5]: in vivo. Conditions: dog.
For series [6] the following is noted: cited from earlier work.

Regarding `COC12CCC3(CC1C(C)(O)C(C)(C)C)C1Cc4ccc(OC(=O)NC(Cc5ccccc5)C(=O)O)c5c4C3(CCN1CC1CC1)C2O5` (stereo not drawn) [Buprenorphine phenylalanine carbamate], the “pH 10.0 buffer: % remaining after 2 h/20° C.” value (buffer, pH 10) was 74%. For the setting “pH 5.9”, the “Distilled water (pH 5.9): % remaining after 2h/20° C.” value was 99%. Where the note is “simulated gi fluid, pH 1.1”, the “Simulated gastric fluid (pH 1.1): % remaining after 2 h/37° C.” value was 100%. The “Simulated intestinal fluid (pH 6.8): % remaining after 2 h/37° C.” value (simulated gi fluid, pH 6.8) is listed as 45%. In series [1], the “AUC (mean ngh/mL ± SD)” value stood at 9.66 ± 1.92, the “Cmax (mean ng/mL ± SD)” value worked out at 0.86 ± 0.32 ng/mL and the “Mean relative bioavailability %” value is reported as 84.5%.
Regarding `CCC1(c2cccc(O)c2)CCCCN(C)C1` (stereo not drawn) [Meptazinol HCl], the “AUC (mean ngh/mL ± SD)” value in series [2] turned out to be 15.6 ± 7.4. Further, in “in vivo [3]”, the exposure AUC(0-t) (as a rule, the area under the concentration-time curve up to a stated or last time point) was found to be 5.87 ng·h/mL.
Take `CC(C)[C@H](NC(=O)Oc1ccc2c3c1OC1C(=O)CC[C@@]4(O)[C@@H](C2)N(C)CC[C@]314)C(=O)O` (stereo partly drawn) [Oxymorphone valine carbamate HCl, (S)-2-[(4,5-Epoxy-14-hydroxy-17-methylmorphinan-6-one-3-yl)-oxycarbonylamino]-3-methylbutanoic acid Hydrochloride]: in series [4] (Beagle, 0.5 mg/kg), the “Mean relative bioavailability %” value was determined as 816%. In addition, the “Cmax (mean ng/mL ± SD)” value in series [4] (Beagle, po, 0.5 mg/kg) is recorded as 21.6 ± 7.2 ng/mL. Also, the “plasma levels of the prodrug relative to the drug itself” value in series [4] (beagle, po) was “approx. 4 fold”. In series [4] (po), the “AUC (mean ngh/mL ± SD)” value worked out at 94.4 ± 33.3 and the “time for which plasma drug levels were maintained above 50% of Cmax, prodrug vs drug itself” value is listed as “almost twice as long”. The AUC – broadly, the area under the concentration-time curve, a measure of exposure – in the series “in vivo [5]” (Beagle, po, 0.5 mg, Oxymorphone valine carbamate AUC) came out at 234 ng·h/mL. In the series “in vivo [5]” (Beagle, po, 0.5 mg, Oxymorphone valine carbamate AUCt), the AUC(0-t) amounted to 232 ng·h/mL. The Cmax (in general, the maximum level reached in the sampled fluid or tissue) in the series “in vivo [5]” (Beagle, po, 0.5 mg, Oxymorphone valine carbamate Cmax) is 75 ng/mL.
For the compound `CCC1(c2cccc(O)c2)CCCCN(C)C1` (stereo not drawn) [meptazinol, 3-(3-Ethyl-1-methyl-azepan-3-yl)-phenol], the “relative standard deviation (variability in meptazinol levels, mean AUC)” value in series [2] (beagle) amounted to 26%. In addition, the “Meptazinol AUC” value in series [2] (beagle, 1 mg) was found to be 12.8±3.4. In series [6] (oral, Norbury et al. (1983)), the “range of observed oral bioavailabilities” value is on record as 2-20% and the “reported mean bioavailability values” is listed as 4-9%. Also, in series [6] (oral), the “oral dose removed as it passes through the liver (first pass metabolism)” value is reported as “up to 98%”. Also, in series [6] (rectal formulation, Murray et al. (1989)), the bioavailability is recorded as 15-20%.
On to `CN1CC[C@]23c4c5ccc(O)c4O[C@H]2C(=O)CC[C@@]3(O)[C@H]1C5` [oxymorphone, 14-hydroxydihydromorphinone], for which the AUC in the series “in vivo [5]” (iv, intravenous AUC value) is 146 ng·h/mL. Further, the half life in series [6] (Adams and Ahdieh (2005)) was around 7 h. Also, the “food effect: increase of Cmax values” in series [6] (Opana FDA labeling) was at most 38%. The absolute oral bioavailability in series [6] (Sloan et al. (2005)) was 10%.
